The values that follow come from patent publication US20150297694A1, “CANCER DIAGNOSTIC AND THERAPEUTIC METHOD TARGETING MOLECULES EXPRESSED IN CANCER STEM CELLS” (NIIGATA UNIVERSITY, priority 2012, published 2015).

The experiment concerns PBMC of healthy volunteers (HLA-A*0201 or HLA-A*2601). The experiment is described as follows: IFN-γ production (ELISA) by DDX3X-derived peptide stimulation of peptide-induced CTL from PBMC. The format is cell-based, human. The following applies: peptide 20 μg/mL, 24 hours. On the procedure:
PBMC (1.5×10^7 cells) were inoculated in a 24-well plate in 1.5×10^6 cells/well (Day 0). Then, three types of DDX3X-derived peptides (final concentration 20 μg/mL each), and IL-7 (final concentration 10 ng/mL) were added to each well, and the cells were cultured at 37° C. in 5% CO2.
The cells were re-stimulated after 1 week (Day 7). For re-stimulation, the PBMC cryopreserved as antigen-presenting cells in Day 0 were thawed, and the three types of DDX3X-derived peptides (final concentration 20 μg/mL each) were added and conjugated at 37° C. for 2 hours after adjusting the cells to 3×10^6 cells/mL or less. This was followed by addition of a mitomycin C [Kyowa Hakko Kirin] solution to make the final concentration 50 μg/mL, and the cells were treated at 37° C. for 45 min. The cells were washed twice with AIM-V, and resuspended in medium to obtain an antigen-presenting cell suspension. After harvesting cells cultured for 1 week, the cells were inoculated in a 24-well plate in 1.2×10^6 cells/well, and the antigen-presenting cell suspension was inoculated with the same number of cells. Finally, IL-7 was added at 10 ng/ml, and the cells were cultured at 37° C. in 5% CO2. After 2 days (Day 9), half of the culture medium was gently removed from each well, and replaced with 40 U/mL of IL-2-containing medium for further culture. The half-volume replacement of the culture medium with 20 U/mL of IL-2-containing medium was repeated in the same fashion every other day (Day 11, Day 13). Re-stimulation was repeated in Day 14 and Day 21 using the same procedure. […]
Twenty-four hours after peptide stimulation, the culture supernatant was gently collected from each well. IFN-γ concentration in each culture supernatant was detected by ELISA, by using an ELISA reagent set (BD OptEIA ELISA set (human IFN-7)(trade name)) according to the manufacturer's protocol after modification. […] Measurements were made with a visible wavelength absorbance microplate reader (VERSAmax(trade name); Molecular Device).
Background: In an ELISA, binding on a coated surface is turned into a signal by an enzyme label.

On to “LEDFLYHEGY (listed as Homo sapiens) [DDX3X-10 mer]”, for which the “samples showing IFN-γ production” value was “two of the five” (Day 21, samples with A*2601) and “one of the six” (Day 28, samples with A*0201).

For the sequence “FVETKKGADSLEDFLYHEGY (listed as Homo sapiens) [DDX3X-20 mer]”, the “samples showing IFN-γ production” value (Day 28, samples with A*2601) is given as “one of the five”.
